pIC50: −log10 of the molar value. Where “and” joins values, the source holds several entries; their conditions need not be identical. Equal entries are not always repeated.

The experiment is described as follows: RORgamma Gal4 Reporter Gene Assay (REN): Cells were incubated for additional 16 h before renilla (REN) luciferase activities were measured sequentially in the same cell extract using a Dual-Light-Luciferase-Assay system (Dyer et al., Anal. Biochem. 2000, 282:158). All experiments were done at least in triplicates. On the technique in general: A reporter such as luciferase makes a cellular process visible.
Molecule `CC(C)(C)NS(=O)(=O)c1ccc(-c2oc(C(=O)N[C@H]3C[C@H](C(=O)NS(C)(=O)=O)C3)nc2CC2CCCCC2)c2ccccc12` gave a pIC50 of 6.70.

In turn, `CC(C)(CCNC(=O)c1nc(CC2CCCCC2)c(-c2cc(C(C)(C)C)cc(C3(C)CC3)c2)s1)C(=O)O` gave a pIC50 of 7.00.

As for `CN(C(=O)c1nc(CC2CCCCC2)c(-c2cc(C(C)(C)C)cc(C3(C)CC3)c2)s1)C1CCOCC1`, the pIC50 was 6.90.

The molecule `CC(C)(C)NS(=O)(=O)c1ccc(-c2sc(C(=O)N3CC(C(C)(C)C(=O)O)C3)nc2CC2CCCCC2)c(Cl)c1Cl` gave a pIC50 of 6.90.

On to `CC(C)(C)c1cc(-c2sc(S(N)(=O)=O)nc2CC2CCCCC2)cc(C(C)(C)C)c1`, for which the pIC50 was 6.40.

For the molecule `CC1CCN(C(=O)c2nc(C(=O)N3CC4(CCOCC4)C3)sc2-c2ccc(S(=O)(=O)NC(C)(C)C)c3ccccc23)CC1`, the pIC50 is 7.20.

Turning to `CCC(C)(C)NS(=O)(=O)c1ccc(-c2sc(C(=O)NCc3ncc(S(C)(=O)=O)s3)nc2C(=O)N2CCC(C)CC2)c(Cl)c1C`, the pIC50 is 7.70.

Take `CC1CCN(C(=O)c2nc(C(=O)N3CC4(CCS(=O)(=O)CC4)C3)sc2-c2ccc(S(=O)(=O)NC(C)(C)C)c3ccccc23)CC1`: the pIC50 was 6.60.

`CC1CCN(C(=O)c2nc(C(=O)N3CC4(CCS(=O)(=O)CC4)C3)oc2-c2ccc(S(=O)(=O)NC(C)(C)C)c3ccccc23)CC1` had a pIC50 of 5.60.

In turn, `CC1CCN(C(=O)c2nc(C(=O)NCC(C)(C)O)sc2-c2ccc(S(=O)(=O)N[C@@H](C)C(F)(F)F)c3ccccc23)CC1` had a pIC50 of 7.70.

Take `CC(C)(C)NS(=O)(=O)c1ccc(-c2sc(C(=O)NC3CCS(=O)(=O)CC3)nc2C2CCCCC2)c2ccccc12`: the pIC50 is 8.20.

In turn, `CC(C)(C)NS(=O)(=O)c1ccc(-c2sc(C(=O)NC3CCS(=O)(=O)CC3)nc2CC2CCCCC2)c2ccncc12` had a pIC50 of 7.90.

The molecule `O=C(NC1CCS(=O)(=O)CC1)c1nc(CC2CCCCC2)c(-c2ccc(N3CCOCC3)c3ccccc23)s1` gave a pIC50 of 6.90.

`CC(O)c1c(S(=O)(=O)NC(C)(C)C)ccc(-c2sc(C(=O)N3CC4(CCS(=O)(=O)CC4)C3)nc2CC2CCCCC2)c1Cl` (stereo not drawn) had a pIC50 of 6.70.

`CC1CCN(C(=O)c2nc(C(=O)NCC(C)(C)O)sc2-c2ccc(S(=O)(=O)NCC(C)(C)O)c3ccccc23)CC1` showed a pIC50 of 5.80.

The molecule `CC(C)(C)NS(=O)(=O)c1ccc(-c2sc(C(=O)N[C@H]3C[C@H](C(=O)O)C3)nc2CC2CCCCC2)c(C(F)F)c1Cl` showed a pIC50 of 8.50.

Regarding `CC(C)(C)NS(=O)(=O)c1ccc(-c2sc(C(=O)NC3CC3)nc2CC2CCCCC2)c(Cl)c1Cl`, the pIC50 is 8.00.

`CC(C)(C)NS(=O)(=O)c1ccc(-c2sc(C(=O)NC3CCS(=O)(=O)CC3)nc2-c2cccc(Cl)c2)c2ccccc12` had a pIC50 of 8.20.

With `CC1(c2cc(-c3sc(C(=O)N[C@H]4C[C@H](C(=O)O)C4)nc3CC3CCCCC3)cc(C(F)(F)F)c2)CC1`, the pIC50 is 7.10.

`CC(C)(C)NS(=O)(=O)c1ccc(-c2sc(C(=O)NC3CCS(=O)(=O)CC3)nc2CC2CCCCC2)c2ccccc12`: the pIC50 was 9.00.

In turn, `CC(C)(C)NS(=O)(=O)c1ccc(-c2sc(S(N)(=O)=O)nc2CC2CCCCC2)cc1C(C)(C)C` had a pIC50 of 6.60.

For `COC(c1nc(C(=O)N[C@H]2C[C@H](C(=O)O)C2)sc1-c1cc(C(C)(C)C)cc(C2(C)CC2)c1)C1CCCCC1` (stereo partly drawn), the pIC50 was 7.00.

In turn, `CC(C)(CNC(=O)c1nc(CC2CCCCC2)c(-c2cc(C(C)(C)C)cc(C3(C)CC3)c2)o1)C(=O)O` gave a pIC50 of 6.60.

Molecule `COC(c1nc(C(=O)NC2CCOCC2)sc1-c1ccc(S(=O)(=O)NC(C)(C)C)c(C(C)(C)C)c1)C1CCCCC1` (stereo not drawn) gave a pIC50 of 6.70.

Molecule `CC(C)(O)c1cc(-c2sc(C(=O)N[C@H]3C[C@H](C(=O)O)C3)nc2CC2CCCCC2)cc(C2(C)CC2)c1` had a pIC50 of 7.10.

`CCC1CCN(C(=O)c2nc(C(=O)NCC(C)(C)O)sc2-c2ccc(S(=O)(=O)NC(C)(C)C)c3ccccc23)CC1` showed a negative logarithm of the IC50 (pIC50) of 7.50.

As to `CC1CCCCN1C(=O)c1nc(C(=O)NCC(C)(C)O)sc1-c1ccc(S(=O)(=O)NC(C)(C)C)c2ccccc12` (stereo not drawn), the pIC50 is 7.30.

`CC(C)(C)NS(=O)(=O)c1ccc(-c2sc(C(=O)NCC3(O)CCOCC3)nc2CC2CCCCC2)cc1C(C)(C)O` showed a pIC50 of 7.70.

`CC(C)(C)c1cc(-c2oc(C(=O)NC3CCOCC3)nc2CC2CCCCC2)cc(C2(C)CC2)c1` gave a negative logarithm of the IC50 (pIC50) of 6.90.

The molecule `CC(C)(C#N)CNC(=O)c1nc(CC2CCCCC2)c(-c2ccc(S(=O)(=O)NC(C)(C)C)c3ccccc23)s1` had a pIC50 of 8.70.

`CC(C)(C)NS(=O)(=O)c1ccc(-c2sc(C(=O)NC34CCC(C(=O)O)(CC3)CC4)nc2CC2CCCCC2)c2ccccc12` gave a pIC50 of 8.20.

`CC(C)(C)NS(=O)(=O)c1ccc(-c2sc(C(=O)N[C@H]3C[C@H](C(=O)O)C3)nc2CC2CCCCC2)c2c1CCC2` showed a pIC50 of 8.50.

`CC(C)(C)NS(=O)(=O)c1ccc(-c2sc(C(=O)NC3CCS(=O)(=O)CC3)nc2CC2CCCCC2)c(Cl)c1Cl` had a pIC50 of 8.70.

`CC1CC(C)CN(C(=O)c2nc(C(=O)NCC(C)(C)O)sc2-c2ccc(S(=O)(=O)NC(C)(C)C)c3ccccc23)C1` (stereo not drawn) showed a pIC50 of 6.90.

`CC(C)(O)CNC(=O)c1nc(CC2CCCCC2)c(-c2ncc(S(=O)(=O)NC(C)(C)C)c3ccccc23)s1` gave a pIC50 of 7.70.

The molecule `CC(C)COc1cc(-c2sc(C(=O)N[C@H]3C[C@H](C(=O)O)C3)nc2CC2CCCCC2)cc(C(C)(C)C)n1` showed a negative logarithm of the IC50 (pIC50) of 7.40.

In turn, `CC(C)(C)NS(=O)(=O)c1ccc(-c2sc(C(=O)N[C@H]3C[C@H](C(=O)O)C3)nc2C2CCCCC2)c2ccccc12` showed a pIC50 of 8.00.

Regarding `CC(C)(C)c1cc(-c2nc(C(=O)NC3CCS(=O)(=O)CC3)oc2CC2CCCCC2)cc(C2(C)CC2)c1`, the pIC50 is 6.60.

As to `CC(C)(C)NS(=O)(=O)c1ccc(-c2sc(C(=O)NC3CCOCC3)nc2CC2CCCCC2)cc1C(C)(C)O`, the pIC50 is 7.70.

The molecule `CC(C)(CO)NS(=O)(=O)c1ccc(-c2sc(C(=O)N3CC4(CCS(=O)(=O)CC4)C3)nc2CC2CCCCC2)c2ccccc12` had a pIC50 of 7.10.

In turn, `CC(C)(C)NS(=O)(=O)c1ccc(-c2sc(C(=O)NC3CCS(=O)(=O)CC3)nc2CC2CC2)c(Cl)c1Cl` had a pIC50 of 7.50.

Take `COCC(C)(C)NS(=O)(=O)c1ccc(-c2sc(C(=O)N3CC4(CCS(=O)(=O)CC4)C3)nc2CC2CCCCC2)c2ccccc12`: the pIC50 was 7.40.

Molecule `CNS(=O)(=O)c1ccc(-c2sc(C(=O)N3CC4(CCS(=O)(=O)CC4)C3)nc2CC2CCCCC2)c2ccccc12` showed a pIC50 of 6.60.

On to `Cc1c(C(=O)NC(C)(C)C)cc(-c2sc(C(=O)N[C@H]3C[C@H](C(=O)O)C3)nc2CC2CCCCC2)cc1C1(C)CC1`, for which the pIC50 was 6.80.

The molecule `CCCc1nc(C(=O)NCC(C)(C)O)sc1-c1ccc(S(=O)(=O)N[C@@H](C)C(F)(F)F)c2ccccc12` showed a pIC50 of 7.90.

For `CC(C)(C)NS(=O)(=O)c1ccc(-c2nc(C(=O)NC3CCS(=O)(=O)CC3)sc2CC2CCCCC2)c2ccccc12`, the pIC50 was 9.00.

Consider `CC(C)(C)NS(=O)(=O)c1ccc(-c2sc(C(=O)NC3CCS(=O)(=O)CC3)nc2CC2CCC2)c2ccccc12`, for which the pIC50 was 8.40.

In the case of `CC(C)(C)c1cc(-c2cc(C(N)=O)ccc2CC2CCCCC2)cc(C(C)(C)C)c1`, the pIC50 was 6.30.

`CC(C)(C)NS(=O)(=O)c1ccc(-c2sc(C(=O)NC3CS(=O)(=O)C3)nc2CC2CCCCC2)cc1C(C)(C)O` gave a pIC50 of 7.90.

Molecule `CC(C)(C)NS(=O)(=O)c1ccc(-c2sc(C(=O)NCC3(C(=O)O)CCOCC3)nc2CC2CCCCC2)c(Cl)c1Cl` showed a pIC50 of 7.40.

As to `C[C@H](NS(=O)(=O)c1ccc(-c2sc(C(=O)NCC(C)(C)O)nc2CC2CCC2)c(C(F)(F)F)c1)C(F)(F)F`, the pIC50 is 7.70.

With `CC1(NC(=O)c2cc(-c3sc(C(=O)NC4CCS(=O)(=O)CC4)nc3CC3CCCCC3)cc(C3(C)CC3)c2)COC1`, the pIC50 is 7.90.

`COC(c1nc(C(=O)NC2CCOCC2)sc1-c1cc(C(C)(C)C)cc(C2(C)CC2)c1)C1CCCCC1` (stereo not drawn) showed a pIC50 of 7.10.

`C[C@H](NC(=O)c1cc(-c2sc(C(=O)NCC(C)(C)c3nnn[nH]3)nc2CC2CCCCC2)cc(C2(C)CC2)c1)C(F)(F)F` had a pIC50 of 7.50.

`CC(C)(C)NS(=O)(=O)c1ccc(-c2oc(C(=O)NC34CCC(C(=O)O)(CC3)CC4)nc2CC2CCCCC2)c2ccccc12` gave a pIC50 of 7.90.

For `CC(C)(C)NS(=O)(=O)c1ccc(-c2oc(C(=O)NC3CCOCC3)nc2CC2CCCCC2)cc1C(C)(C)C`, the pIC50 was 6.30.

Molecule `CC1CCN(C(=O)c2nc(C(=O)NCC(C)(C)O)sc2-c2ccc(S(=O)(=O)NCC(F)(F)F)c3ccccc23)CC1` had a pIC50 of 7.40.

`CC(C)(C)NS(=O)(=O)c1ccc(-c2sc(C(=O)NCCN3CCOCC3)nc2CC2CCCCC2)cc1C(C)(C)O` had a pIC50 of 6.70.

Turning to `CC(C)(C)NS(=O)(=O)c1ccc(-c2sc(C(=O)NC3C[S+]([O-])C3)nc2CC2CCCCC2)cc1C(C)(C)O` (stereo not drawn), the pIC50 was 8.00 and 7.30.

Molecule `CC(C)(C)NS(=O)(=O)c1ccc(-c2sc(C(=O)N[C@H]3C[C@H](C(=O)O)C3)nc2CC2CCCCC2)cc1C(C)(C)O` showed a pIC50 of 8.00.

Molecule `CC(C)(C)c1cc(-c2nc(C(N)=O)sc2CC2CCCCC2)cc(C(C)(C)C)c1` showed a pIC50 of 5.80.

With `CC(C)(C)NS(=O)(=O)c1ccc(-c2sc(C(=O)NC3CSC3)nc2CC2CCCCC2)c2ccccc12`, the pIC50 was 8.70.

In the case of `CC(C)(C)NS(=O)(=O)c1ccc(-c2sc(C(=O)NC3CSC3)nc2CC2CCCCC2)c(Cl)c1Cl`, the pIC50 is 8.70.

In the case of `O=C(c1nc(CC2CCCCC2)c(-c2ccc(S(=O)(=O)NC3CS(=O)(=O)C3)c3ccccc23)s1)N1CC2(CCS(=O)(=O)CC2)C1`, the pIC50 was 6.40.

In turn, `CCC(C)(C)NS(=O)(=O)c1ccc(-c2sc(C(=O)NCC(C)(C)O)nc2C(=O)N2CCC(C)CC2)c(Cl)c1C` gave a pIC50 of 8.50.

As to `CC(C)(C)c1cc(-c2oc(C(N)=O)nc2CC2CCCCC2)cc(C(C)(C)C)c1`, the pIC50 is 5.80.

In turn, `CC(C)(O)c1cc(-c2sc(C(=O)N[C@H]3C[C@@H](C(=O)O)C3)nc2CC2CCCCC2)cc(C2(C)CC2)c1` had a pIC50 of 7.20.

The molecule `CC(C)(C)c1cc(-c2ccc(C(N)=O)cc2CC2CCCCC2)cc(C(C)(C)C)c1` gave a pIC50 of 6.20.

By pIC50 is commonly meant the negative decadic logarithm of the IC50, by convention in mol/L. Low readings indicate a large IC50, high ones a small IC50.

These data come from ChEMBL document CHEMBL5727000, “Carboxamide or sulfonamide substituted thiazoles and related derivatives as modulators for the orphan nuclear receptor ROR[γ]” (2019).
